According to US4551547A, “Biocidal 2-aryl-1, 3-cyclopentanedione enol ester compounds” (Union Carbide Corporation, priority 1983, dated 1985):
In brackets after ≈: the same amount, converted by molar mass.

Assays:
[1] = tested on: Red root pigweed (Amaranthus); test: Preliminary herbicide seed germination test (pre-emergent), red root pigweed; assay type: in vivo, Amaranthus retroflexus; parameters: key: 5: no seedling emerged; 4: few seedlings emerged and/or very severe stunting; 3: moderate reduction in stand and/or moderate stunting.; 2: very slight reduction in stand and/or slight stunting; 1: no injury, seedlings appear no different with respect to stand or growth than untreated controls; settings: ten to twelve days after application
Experimental: (§1) Suspensions of the test compounds were prepared by dissolving one gram of compound in 50 milliliters of acetone in which had been dissolved 0.1 gram (10 percent of the weight of compound) of an alkylphenoxyethanol sufactant, as an emulsifying or dispersing agent. The resulting solution was mixed into 160 milliliters of water to give roughly 200 milliliters of a suspension containing the compound in finely divided form. The thus prepared stock suspension contained 0.5 percent by weight of compound. The test concentrations employed in the tests described below were obtained by diluting the stock suspension with water. The test procedures were as follows:
The following seeds were used in this test:
Red root pigweed--Amaranthus retroflexus
Two […] mixtures were prepared as follows:
Each of the above mixtures was rolled separately in 5 gallon containers for approximately one-half hour on ball mill to insure uniform mixing of seeds and soil. For each compound four 3-inch pots were filled with soil to within 11/2 inches of top of pots. To two of these pots were added 70 cc. of Mixture I. To the remaining 2 pots were added 70 cc. of Mixture II. The seed-soil mixture was tamped firmly, and the pots were removed to the greenhouse and watered lightly. About 2 hours after planting, 25 milliliters of the test formulation were added to one pot containing Mixture I and one pot containing Mixture II. An equal volume of a water solution containing acetone and an emulsifier in the same concentration as the herbicidal mixture but without the candidate herbicide was also added to each of the soil-seed mixtures. These pots are used as check or control units. The test compounds were formulated by diluting the stock suspension with water to obtain the desired concentration of the compound in parts per million of the final formulation. Each compound was tested at the same concentration. […] Ratings were made according to the following designations: […]

[2] = tested on: Bean; test: Post-emergent herbicidal test, bean; assay type: in vivo; parameters: key: 1: no perceptible injury; 2: intermediate degrees of injury; 3: intermediate degrees of injury; 4: intermediate degrees of injury; 5: the plant was dead; settings: 2500 parts per million, after ten days; for Post-emergent Herbicidal, Bean: Table II; for Post Emergent Herbicidal, Bean: Table III
Experimental: as §1
Experiments were also conducted to determine the phytotoxicity of representative compositions with respect to healthy fresh plants. Solutions of the compounds were prepared as described above to provide a concentration of 2500 parts per million of the test compound. The test plants were sprayed in accordance with the procedure described above for the Mite Foliage Spray Test so as to deliver approximately 100 milliliters of test solutions to the leaves of each plant tested. The sprayed plants and controls were set aside for approximately one hour to allow the solutions to dry and were then placed in the greenhouse. After ten days the plants were visually inspected to determine the extent of foliage injury. A rating of 1 indicates no perceptible injury; 5 indicates the plant was dead and ratings of 2, 3 and 4 indicate intermediate degrees of injury based upon the number and extent to which leaves were injured.

[3] = tested on: egg of the two-spotted mite; test: Mite Ovicide Test (eggs); assay type: in vivo, Tetranychus urticae (Koch); parameters: key to Miticidal, Egg: A: Excellent Control; B: Partial Control; No Control; settings: for Miticidal, Egg: Table II, unhatched eggs after four days; for LC50: Tetranychus urticae, Table III, ppm required for a 50 percent kill of eggs, read-out: Miticidal LD50, Egg
Experimental: Suspensions of the test compounds were prepared by dissolving one gram of compound in 50 milliliters of acetone in which had been dissolved 0.1 gram (10 percent of the weight of compound) of an alkylphenoxyethanol sufactant, as an emulsifying or dispersing agent. The resulting solution was mixed into 160 milliliters of water to give roughly 200 milliliters of a suspension containing the compound in finely divided form. The thus prepared stock suspension contained 0.5 percent by weight of compound. The test concentrations employed in the tests described below were obtained by diluting the stock suspension with water. The test procedures were as follows: The test organism was the egg of the two-spotted mite (Tetranychus urticae (Koch)), as obtained from adults reared on […] bean plants under controlled conditions of 80±5° F. and 50±5 percent relative humidity. Heavily infested leaves from a stock culture were placed on the primary leaves of two bean plants six to eight inches in height growing in a two-and-a-half inch clay pot. Females were allowed to oviposit for a period of 48 hours and the leaves of the infested plants were dipped in a solution containing 800 parts of tetraethyl pyrophosphate per million parts of water in order to destroy the reproductory forms and thus prevent further egg laying. […] The plants were allowed to dry thoroughly. The test compounds were formulated by diluting the stock suspension with water to give a suspension containing varying amounts of test compound per million parts of final formulation. The potted plants (one pot per compound) were placed on a revolving turntable and sprayed with 100-110 milliliters of test compound formulation by use of a DeVilbis spray gun set at 40 spig. air pressure. This application which lasted 30 seconds, was sufficient to wet the plants to run-off. As a control, 100-110 milliliters of a water solution containing acetone and emulsifier in the same concentrations as the test compound formulation, but containing no test compound, were also sprayed on plants infested with eggs. The sprayed plants were held at 80±5° F. and 50±5 percent relative humidity for four days, after which a microscopic examination was made of unhatched (dead) and hatched (living) eggs. In these tests the pesticidal activity of the compounds against mites and mite eggs was rated as follows: Tests were conducted in accordance with the procedures given at pages 17 to 21 supra. The results are expressed in the same manner as used in Table II, except with respect to miticidal activity. For mite adult and mite egg comparison purposes, results are given in parts per million (ppm) required for a 50 percent kill of mites or eggs, respectively.

Structure (SMILES)	Pre-emergent Herbicidal, Amaranthus ([1]; Table II)	Post-emergent Herbicidal, Bean [2]	Miticidal, Egg [3]	Pre-emergent Herbicidal, Amaranthus ([1]; Table III)	Post Emergent Herbicidal, Bean [2]	LC50 [3] [µg/mL]
CCCCCCCCCCCCCCCC(=O)OC1=C(c2ccc(Cl)cc2Cl)C(=O)CC1 [Compound 6]	1	1	B			
CC(=O)OC1=C(c2cc(C)ccc2C)C(=O)C2CCCCC12 (stereo not drawn) [Compound 28]	1	2	A			
CC(=O)OC1=C(c2ccccc2C)C(=O)C2CCCCC12 (stereo not drawn) [Compound 19, 3-acetoxy-2-(2'-methylphenyl)-4,5,6,7,8,9-hexahydro-2-indenone]	4	3	A			
CCCCC(CC)C(=O)OC1=C(c2ccccc2C)C(=O)CC1 (stereo not drawn) [Compound 7]	3	2	A			
Cc1ccccc1C1=C(OC(=O)C(C)(C)C)c2ccccc2C1=O [reference compound]				2	1	270 (≈ 843 µM)
CCCCC(CC)C(=O)OC1=C(c2ccc(C)cc2C)C(=O)C2CCCCC12 (stereo not drawn) [Compound 26, 3-(2-ethylhexanoyloxy)-2-(2',4'-dimethylphenyl)-4,5,6,7,8,9-hexahydro-2-indenone]	1	2	A			
O=C1CCC(OC(=O)c2ccccc2)=C1c1ccccc1Cl [Compound 2]	1	3	A			
CCCCCCCCCCCCCCCC(=O)OC1=C(c2ccccc2C)C(=O)C2CCCCC12 (stereo not drawn) [Compound 24]	2	1	A			
CCCCC(CC)C(=O)OC1=C(c2cc(C)ccc2C)C(=O)C(C)C1 (stereo not drawn) [Compound 17]	3	3	A			
Cc1ccc(C)c(C2=C(OC(=O)C(C)(C)C)C3CCCCC3C2=O)c1 (stereo not drawn) [Compound 31]	1	1	A			
CCCCCCCCCCCCCCCC(=O)OC1=C(c2ccccc2C)C(=O)CC1 [Compound 8]	3	3	B			
CCCCCCCCCCCCCCCC(=O)OC1=C(c2ccccc2C)C(=O)C2CCCCC12 (stereo not drawn) [drawing 17]				2	1	500 (≈ 1040 µM)
CCCCCCCCCCCCCCCC(=O)OC1=C(c2cc(C)ccc2C)C(=O)C2CCCCC12 (stereo not drawn) [Compound 33]	1	1	A			
CCCCCCCCCC(=O)OC1=C(c2ccccc2C)C(=O)C2CCCCC12 (stereo not drawn) [drawing 15]				3	2	1 (≈ 2.52 µM)
Cc1ccc(C)c(C2=C(OC(=O)C(C)C)CCC2=O)c1 [Compound 12]	1	2	B			
CCCCCCCCCC(=O)OC1=C(c2ccccc2C)C(=O)c2ccccc21 [reference compound]				1	1	500 (≈ 1280 µM)
CCCCC(CC)C(=O)OC1=C(c2ccccc2C)C(=O)c2ccccc21 (stereo not drawn) [reference compound]				1	1	60 (≈ 166 µM)
CC(=O)OC1=C(c2ccc(Cl)cc2Cl)C(=O)CC1 [Compound 3]	2	2	A			
CCCCCCCCCC(=O)OC1=C(c2cc(C)ccc2C)C(=O)C2CCCCC12 (stereo not drawn) [drawing 19]				1	1	8 (≈ 19.5 µM)
Cc1ccc(C)c(C2=C(OC(=O)C(C)C)CC(C)C2=O)c1 (stereo not drawn) [Compound 16]	3	3	B			
